From ChEMBL document CHEMBL1140823, “Pyrazolopyridines with potent activity against herpesviruses: effects of C5 substituents on antiviral activity” (Bioorg Med Chem Lett, 2008) come the findings set out here.

Structures are written as SMILES. pIC50: −log10 of the molar value. A value given as a limit tells only on which side of the number the result lay.

Usually CC50 stands for the concentration that lowers cell viability or growth by half. A word on the pIC50: it is −log10 of the IC50, conventionally taken in molar units.

Series [1] can be described thus: Cytotoxicity against african green monkey Vero cells. As to conditions: chlorocebus sabaeus. The series is classed as cell-based.
The subject of a further series is Human alphaherpesvirus 1. In words: Antiviral activity against HSV1 SC16 in african green monkey Vero cells. In kind it is functional, organism-based. As to conditions: Human alphaherpesvirus 1, SC16, Vero.

Regarding `c1cc(NC2CCCC2)n2nc(-c3ccc(OCC4CC4)cc3)c(-c3ccnc(NC4CCCC4)n3)c2c1`, in series [1], the CC50 is over 40000 nM. Moreover, the pIC50 in the series on Human alphaherpesvirus 1 was 6.77.
In the same order, the values of `COCCOc1cc(NC2CCCC2)n2nc(-c3ccc(F)cc3)c(-c3ccnc(NC4CCCC4)n3)c2c1` are over 40000 nM and 6.49.
In series [1], `COCCOc1cc(NC2CCCC2)cc2c(-c3ccnc(NC4CCCC4)n3)c(-c3ccc(F)cc3)nn12` had a CC50 of 32500 nM. Moreover, the pIC50 in the series on Human alphaherpesvirus 1 was 7.10.
For `COc1ccc(-c2nn3ccc(NC(C)C)cc3c2-c2ccnc(NC3CCCC3)n2)cc1`, in that order: over 40000 nM and 6.04.
In the case of `CC(C)Nc1cc(Cl)cc2c(-c3ccnc(NC4CCCC4)n3)c(-c3ccc(F)cc3)nn12`, the CC50 in series [1] was over 40000 nM. In the series with Human alphaherpesvirus 1, this compound showed a pIC50 of 5.82.
For `CC(C)Oc1cc(NC2CCCC2)n2nc(-c3ccc(F)cc3)c(-c3ccnc(NC4CCCC4)n3)c2c1`, the CC50 in series [1] is over 40000 nM. This compound also had a pIC50 in the series with Human alphaherpesvirus 1 of 7.15.
In the same order, the values of `Fc1ccc(-c2nn3c(Cl)cc(NC4CCCC4)cc3c2-c2ccnc(NC3CCCC3)n2)cc1` are over 40000 nM and 5.87.
In series [1], `Fc1ccc(-c2nn3c(N4CCOCC4)cc(Cl)cc3c2-c2ccnc(NC3CCCC3)n2)cc1` showed a CC50 of over 40000 nM. This compound had a pIC50 with Human alphaherpesvirus 1 of 6.74.
In turn, `Fc1ccc(-c2nn3c(N4CCCCC4)cc(Cl)cc3c2-c2ccnc(NC3CCCC3)n2)cc1` showed a CC50 in series [1] of over 40000 nM. In addition, the pIC50 in the series on Human alphaherpesvirus 1 is 6.82.
In the same order, the values of `Fc1ccc(-c2nn3ccc(NC4CCCC4)cc3c2-c2ccnc(NC3CCCC3)n2)cc1` are 18000 nM and 6.28.
In series [1], `Fc1ccc(-c2nn3c(NC4CCCC4)cccc3c2-c2ccnc(NC3CCCC3)n2)cc1` gave a CC50 of over 160000 nM. This compound had a pIC50 in the series on Human alphaherpesvirus 1 of 6.59.
For `CC(C)Nc1ccn2nc(-c3ccc(F)cc3)c(-c3ccnc(NC4CCCC4)n3)c2c1`, in that order: over 40000 nM and 5.56.
With `CC(C)Nc1cc(NC(C)C)n2nc(-c3ccc(F)cc3)c(-c3ccnc(NC4CCCC4)n3)c2c1`, the CC50 in series [1] is over 40000 nM. Further, in the series with Human alphaherpesvirus 1, the pIC50 is 6.26.
`COc1ccc(-c2nn3c(NC4CCCC4)cccc3c2-c2ccnc(NC3CCCC3)n2)cc1` had a half-maximal cytotoxic concentration (CC50) in series [1] of over 100000 nM. For the same compound, the pIC50 with Human alphaherpesvirus 1 is 6.66.
For `COc1ccc(-c2nn3ccc(Cl)cc3c2-c2ccnc(NC3CCCC3)n2)cc1`, in that order: over 40000 nM and 5.37.
In series [1], `COc1ccc(-c2nn3c(Sc4ccccc4)cc(NC4CCCC4)cc3c2-c2ccnc(NC3CCCC3)n2)cc1` returned a CC50 of over 40000 nM. The pIC50 in the series on Human alphaherpesvirus 1 was 5.74.
Consider `CCOc1cc(NC2CCCC2)cc2c(-c3ccnc(NC4CCCC4)n3)c(-c3ccc(F)cc3)nn12`, for which, in series [1], it took 20600 nM to reach half-maximal cytotoxicity (CC50). This compound also had a pIC50 with Human alphaherpesvirus 1 of 6.80.
Compound `Fc1ccc(-c2nn3c(NC4CC4)cc(Cl)cc3c2-c2ccnc(NC3CCCC3)n2)cc1` showed a CC50 in series [1] of over 40000 nM. In addition, in the series on Human alphaherpesvirus 1, the pIC50 was 6.48.
For `COc1ccc(-c2nn3c(SC)cc(NC4CCCC4)cc3c2-c2ccnc(NC3CCCC3)n2)cc1`, in that order: over 40000 nM and 6.66.
For `COc1ccc(-c2nn3ccc(NC4CCCC4)cc3c2-c2ccnc(NC3CCCC3)n2)cc1`, in that order: 12300 nM and 6.68.
For `Fc1ccc(-c2nn3c(Cl)cc(Cl)cc3c2-c2ccnc(NC3CCCC3)n2)cc1`, in that order: over 40000 nM and 5.15.
The compound `COc1ccc(-c2nn3c(NC4CC4)cc(Cl)cc3c2-c2ccnc(NC3CCCC3)n2)cc1` displayed a CC50 in series [1] of over 40000 nM. This compound had a pIC50 with Human alphaherpesvirus 1 of 6.47.
Consider `CC(C)COc1ccc(-c2nn3ccc(NC4CCCC4)cc3c2-c2ccnc(NC3CCCC3)n2)cc1`, for which half-maximal cytotoxicity in series [1] (CC50) was put at 27000 nM. The compound also had a pIC50 with Human alphaherpesvirus 1 of 6.25.
In the same order, the values of `COCCNc1ccn2nc(-c3ccc(F)cc3)c(-c3ccnc(NC4CCCC4)n3)c2c1` are over 40000 nM and 6.08.
In the same order, the values of `Fc1ccc(-c2nn3ccc(N4CCOCC4)cc3c2-c2ccnc(NC3CCCC3)n2)cc1` are 34000 nM and 5.44.
For `Fc1ccc(-c2nn3ccc(N4CCCC4)cc3c2-c2ccnc(NC3CCCC3)n2)cc1`, in that order: over 40000 nM and 5.87.
As for `Fc1ccc(-c2nn3c(NC4CCCC4)cc(Cl)cc3c2-c2ccnc(NC3CCCC3)n2)cc1`, the CC50 in series [1] is over 40000 nM. Moreover, in the series on Human alphaherpesvirus 1, the pIC50 is 6.48.
For `c1cc(-c2c(-c3ccc(OCC4CC4)cc3)nn3ccc(NC4CCCC4)cc23)nc(NC2CCCC2)n1`, in that order: over 40000 nM and 6.48.
In the same order, the values of `COc1ccc(-c2nn3c(SC(C)C)cc(NC4CCCC4)cc3c2-c2ccnc(NC3CCCC3)n2)cc1` are over 40000 nM and 6.68.
`CN(C)c1cc(Cl)cc2c(-c3ccnc(NC4CCCC4)n3)c(-c3ccc(F)cc3)nn12` showed a 50% cytotoxic concentration (CC50) in series [1] of over 40000 nM. Also, the pIC50 in the series with Human alphaherpesvirus 1 was 6.42.
For `Fc1ccc(-c2nn3ccc(Cl)cc3c2-c2ccnc(NC3CCCC3)n2)cc1`, in that order: over 40000 nM and under 5.30.
For `Nc1nc2c(ncn2COCCO)c(=O)[nH]1` [ACYCLOVIR], in that order: over 200000 nM and 6.41.
For the compound `Nc1ccn2nc(-c3ccc(F)cc3)c(-c3ccnc(NC4CCCC4)n3)c2c1`, the CC50 in series [1] was found to be 20000 nM. The pIC50 in the series with Human alphaherpesvirus 1 was 5.29.
The compound `CC(C)Sc1cc(NC2CCCC2)cc2c(-c3ccnc(NC4CCCC4)n3)c(-c3ccc(F)cc3)nn12` had a CC50 in series [1] of over 40000 nM. The pIC50 in the series with Human alphaherpesvirus 1 was 6.43.
In turn, `COc1ccn2nc(-c3ccc(F)cc3)c(-c3ccnc(NC4CCCC4)n3)c2c1` registered a CC50 in series [1] of over 36000 nM. Moreover, the pIC50 in the series on Human alphaherpesvirus 1 was under 4.44.
As to `CCSc1cc(NC2CCCC2)cc2c(-c3ccnc(NC4CCCC4)n3)c(-c3ccc(OC)cc3)nn12`, the CC50 in series [1] is over 40000 nM. In the series on Human alphaherpesvirus 1, this compound had a pIC50 of 7.40.
In the same order, the values of `COc1cc(NC2CCCC2)n2nc(-c3ccc(F)cc3)c(-c3ccnc(NC4CCCC4)n3)c2c1` are over 40000 nM and 6.89.
For `CCSc1cc(NC2CCCC2)cc2c(-c3ccnc(NC4CCCC4)n3)c(-c3ccc(F)cc3)nn12`, the CC50 in series [1] was over 40000 nM. This compound also gave a pIC50 in the series on Human alphaherpesvirus 1 of 7.15.
In the same order, the values of `Fc1ccc(-c2nn3c(NC4CCCC4)cc(OCC4CC4)cc3c2-c2ccnc(NC3CCCC3)n2)cc1` are over 40000 nM and 6.77.
For `CSc1cc(NC2CCCC2)cc2c(-c3ccnc(NC4CCCC4)n3)c(-c3ccc(F)cc3)nn12`, in that order: over 40000 nM and 6.77.
In the same order, the values of `COc1ccc(-c2nn3c(NC4CCCC4)cc(Cl)cc3c2-c2ccnc(NC3CCCC3)n2)cc1` are over 40000 nM and 6.66.
Take `COc1ccc(-c2nn3c(Cl)cc(Cl)cc3c2-c2ccnc(NC3CCCC3)n2)cc1`: the CC50 in series [1] is over 40000 nM. Further, the pIC50 with Human alphaherpesvirus 1 was 5.28.
In the case of `Fc1ccc(-c2nn3c(NC4CCCC4)cc(NC4CCCC4)cc3c2-c2ccnc(NC3CCCC3)n2)cc1`, the CC50 in series [1] is over 40000 nM. Besides, the pIC50 in the series with Human alphaherpesvirus 1 was 6.62.
